Data reported in patent publication US20060002866A1, “Method for protecting the skin from aging” (priority 2002, published 2006).

System: lumican mRNA in MRC5 fibroblasts
Assay: Stimulation of the lumican mRNA content in MRC5 fibroblasts (Northern Blot)
Format: cell-based, human
Details: for Mean value [mRNA lumican/36B4 mRNA]: MRC5 fibroblasts, lumican mRNA against housekeeping gene 36B4 mRNA
Procedure: Northern Blot technique for determining the RNA messengers in cells of low molecular weight proteoglycans, such as lumican and syndecan.
The stimulation of the lumican mRNA content in MRC5 fibroblasts incubated with increasing concentrations of the growth factor IGF-1 (Insulin-like Growth Factor 1, Sigma-Aldrich) was investigated. The content of mRNA of the proteoglycan lumican in cultures of human fibroblasts—MRC5 fibroblasts—was determined by the Northern Blot method.

In the case of “IGF-1: growth factor IGF-1 (Insulin-like Growth Factor 1, Sigma-Aldrich)”, the “Mean value [mRNA lumican/36B4 mRNA]” value (IGF-1 0.1 ng/ml) is reported as 1.38, the “Mean value [mRNA lumican/36B4 mRNA]” value (IGF-1 1 ng/ml) is reported as 2 and the “Mean value [mRNA lumican/36B4 mRNA]” value (IGF-1 10 ng/ml) is reported as 3.2. For the same substance, the “Effect on mRNA content for lumican” value (cultures of MRC5 fibroblasts) was “increases the mRNA content for lumican”.
